Laboratory results as given in patent US20240391882A1 (Mirati Therapeutics, Inc., priority 2023, published 2024).

What was measured:
Assay type in all cases: cell-based
[1] = test system: SKBR3 (PI3Kα wild type) cells; experiment: Cell viability (CellTiter-Glo 2.0) in SKBR3 cells; conditions: Homo sapiens, SK-BR-3; SKBR3 (PI3Kα wild type) cells, approximately 72 hours, CellTiter-Glo 2.0; read-out: SKBR3 (WT) Viability IC50
Description: (§1) This Example illustrates that representative compounds of the invention decrease the viability of cells.
(§2) The ability of a compound of Formula (I) to decrease the viability of cells was measured using CellTiter-Glo 2.0 (CTG) Luminescent Cell Viability Assay (#G9241) obtained from Promega (Madison, WI).
(§3) To prepare assay plates for viability assays, cells were trypsinized, resuspended in fresh media, and viable cells were counted utilizing trypan blue exclusion. T47D, SKBR3, or MKN1 cells were seeded at 1000 cells in 30 μl per well in a solid white flat bottom 384 cell culture plate (Perkin Elmer #6007680) and incubated at 37° C. overnight.
(§4) Assay day 1, cells were dosed using an Echo Liquid Handler (Beckman Coulter) with compounds at a 10 μm starting concentration and serially diluted (1:4) for a total of 10 concentrations. Cells were incubated for approximately 72 hours with the compounds (solubilized in DMSO) at 37° C. After 72 hours of treatment, cell plates were equilibrated to room temperature before adding 15 μl of CTG to each well, plates were then covered in aluminum foil to protect from light, incubated at room temperature for 30 minutes on a microtiter plate shaker, and luminescence readings were collected using a CLARIOstar microplate reader (BMG Labtech, Germany). Percent of vehicle control values were plotted as log(inhibitor) vs. response—Variable slope (four parameters) for curve fitting and IC50 values were determined using XLfit.

[2] = test system: T47D (PI3Kα H1047R mutant) cells; experiment: Cell viability (CellTiter-Glo 2.0) in T47D cells; conditions: Homo sapiens, T47D, 72 h, approximately 72 hours
Description: as §1, §2, §3, §4

[3] = test system: pAKT in T47D (PI3Kα H1047R mutant) cells; experiment: Inhibition of pAKT (alphaLISA Surefire Ultra AKT 1/2/3 pS473) in T47D cells; conditions: Homo sapiens; T47D (PI3Kα H1047R mutant) cells, 24 hr compound incubation, alphaLISA pS473; read-out: T47D (H1047R) pAKT 24 hr (IC50)
Description: The ability of a compound of Formula (I) to inhibit the formation of pAKT was measured using alphaLISA Surefire Ultra AKT 1/2/3 (pS473) Assay Kit (#ALSU-PAKT-B50K) was obtained from Perkin Elmer (Waltham, MA).
To prepare assay plates for pAKT alphaLISA assays, cells were trypsinized, resuspended in fresh media, and viable cells were counted utilizing trypan blue exclusion. Prior to seeding, cells were washed with PBS and resuspended in HBSS (Gibco, #14025092). T47D (12,000/w), SKBR3 (12,000/w), or MKN1 (24,000/w) cells were seeded at 12 μl per well in a solid white flat bottom 384 cell culture plate (Perkin Elmer #6007680).
Immediately after seeding, cells were dosed using an Echo Liquid Handler (Beckman Coulter) with compounds at a 10.4 μm starting concentration and serially diluted (1:4) for a total of 10 concentrations. 14 vehicle (DMSO) and 14 positive control (Alpelisib @3.125 μm) wells were included on each assay plate. Cells were incubated with the compounds (solubilized in DMSO) for approximately 24 hours at 37° C. After 24 hours of treatment, cells were lysed with 3 μl of the 5× lysis buffer (provided and incubated at room temperature for 15 min on a microtiter plate shaker). Once cells were sufficiently lysed, 7.5 μl of the acceptor bead mix (made using the manufacturers recommended dilutions) was added to each well and left on the microtiter plate shaker for 1 min prior to incubating plates at room temperature for 1 hour, in the absence of light. After 1 hour of incubation with the acceptor bead mix, 7.5 μl of the donor bead mix (made using the manufacturers recommended dilutions) was added to each well and left on the microtiter plate shaker for 1 min prior to incubating plates at room temperature overnight in the absence of light. Plates were then imaged the following day using a CLARIOstar microplate reader (BMG Labtech, Germany).
Percent of control values were calculated by subtracting the average signal from the positive control (alpelisib) treated wells from all treated wells (including DMSO control wells) and then divided by the average signal from the vehicle DMSO treated control wells. Percent of vehicle control values were plotted as log(inhibitor) vs. response—Variable slope (four parameters) for curve fitting and IC50 values were determined using XLfit.

IC50 [1] | IC50 [2] | IC50 [3] | Structure (SMILES)
> 10000 nM | 71.6 nM | – | Cc1cc([C@@H](C)Nc2ccc(Cl)nc2C(=O)O)c2nc(N3CC4CC3C(F)(F)C4)c(C#N)nc2c1 (single isomer, unassigned) [Example 10]
> 10000 nM | 64 nM | – | Cc1cc([C@@H](C)Nc2ccc(Cl)nc2C(=O)O)c2nc(N3CC4CC3C(F)(F)C4)c(C#N)nc2c1 (single isomer, unassigned) [Example 11]
> 10000 nM | 298 nM | – | CO[C@H]1CCN(c2nc3c([C@@H](C)Nc4ccccc4C(=O)O)cc(C)cc3nc2C#N)C1 (single isomer, unassigned) [Example 72A]
> 10000 nM | 96.3 nM | – | CO[C@@H]1CCN(c2nc3c([C@@H](C)Nc4ccccc4C(=O)O)cc(C)cc3nc2C#N)C1 (single isomer, unassigned) [Example 72B]
> 10000 nM | 298 nM | – | CO[C@@H]1CCN(c2nc3c([C@@H](C)Nc4ccc(Cl)nc4C(=O)O)cc(C)cc3nc2C#N)C1 (single isomer, unassigned) [Example 110A]
> 10000 nM | 96.3 nM | – | CO[C@H]1CCN(c2nc3c([C@@H](C)Nc4ccc(Cl)nc4C(=O)O)cc(C)cc3nc2C#N)C1 (single isomer, unassigned) [Example 110B]
> 10000 nM | 160 nM | – | Cc1cc([C@@H](C)Nc2ccc(Cl)nc2C(=O)O)c2nc(N3CCCC(F)(F)C3)c(C#N)nc2c1 [Example 12, (R)-6-chloro-3-((1-(2-cyano-3-(3,3-difluoropiperidin-1-yl)-7-methylquinoxalin-5-yl)ethyl)amino)picolinic acid]
> 10000 nM | 120 nM | – | Cc1cc([C@@H](C)Nc2ccc(Cl)nc2C(=O)O)c2nc(NCC3(C(F)(F)F)CC3)c(C#N)nc2c1 [Example 15, (R)-6-chloro-3-((1-(2-cyano-7-methyl-3-(((1-(trifluoromethyl)cyclopropyl)methyl)amino)quinoxalin-5-yl)ethyl)amino)picolinic acid]
– | 36.6 nM | 4.4 nM | Cc1cc([C@@H](C)Nc2ccc(Cl)nc2C(=O)O)c2nc(N3C[C@H]4C[C@@H]3CO4)c(C#N)nc2c1 [Example 174, 3-(((R)-1-(3-((1R,4R)-2-oxa-5-azabicyclo[2.2.1]heptan-5-yl)-2-cyano-7-methylquinoxalin-5-yl)ethyl)amino)-6-chloropicolinic acid]
– | 34.5 nM | 1.7 nM | Cc1cc([C@@H](C)Nc2ccc(Cl)nc2C(=O)O)c2nc(N3CC[C@H](F)C3)c(C#N)nc2c1 [Example 176, 6-chloro-3-(((R)-1-(2-cyano-3-((S)-3-fluoropyrrolidin-1-yl)-7-methylquinoxalin-5-yl)ethyl)amino)picolinic acid]
– | 19.4 nM | 0.5 nM | Cc1cc([C@@H](C)Nc2ccc(Cl)nc2C(=O)O)c2nc(N3CC[C@@H](F)C3)c(C#N)nc2c1 [Example 177, 6-chloro-3-(((R)-1-(2-cyano-3-((R)-3-fluoropyrrolidin-1-yl)-7-methylquinoxalin-5-yl)ethyl)amino)picolinic acid]
– | 24.4 nM | 0.5 nM | Cc1cc([C@@H](C)Nc2ccc(Cl)nc2C(=O)O)c2nc(N3C[C@H](F)[C@@H](F)C3)c(C#N)nc2c1 [Example 178, 6-chloro-3-(((R)-1-(2-cyano-3-((3S,4S)-3,4-difluoropyrrolidin-1-yl)-7-methylquinoxalin-5-yl)ethyl)amino)picolinic acid]
– | 77.3 nM | 3.9 nM | Cc1cc([C@@H](C)Nc2ccc(Cl)nc2C(=O)O)c2nc(N3CCN(c4ccc(C(F)(F)F)cn4)CC3)c(C#N)nc2c1 [Example 179, (R)-6-chloro-3-((1-(2-cyano-7-methyl-3-(4-(5-(trifluoromethyl)pyridin-2-yl)piperazin-1-yl)quinoxalin-5-yl)ethyl)amino)picolinic acid]
– | 73.8 nM | 1.9 nM | Cc1cc([C@@H](C)Nc2ccc(Cl)nc2C(=O)O)c2nc(N3CCO[C@@H](C)C3)c(C#N)nc2c1 [Example 260, 6-chloro-3-(((R)-1-(2-cyano-7-methyl-3-((S)-2-methylmorpholino)quinoxalin-5-yl)ethyl)amino)picolinic acid]
